We go through two compounds from patent publication US20040176310A1, “Use of extracts and preparations from iris plants and tectorigenin as medicaments” (priority 2001, published 2004).

For assay [1], the system named is estrogen receptor-alpha. Description: gene expression of estrogen receptor-alpha in the bladder of castrated rats. It is filed as in vivo, rat.
The subject of assay [2] is estrogen receptor-beta. Briefly: gene expression of estrogen receptor-beta in the prostate of male castrated rat. The assay is classed as in vivo.
For assay [3], the system named is Nerve Growth Factor (NGF). Description: gene expression of Nerve Growth Factor (bladder). The assay is classed as in vivo, rat. The source says:
Bladder tonus is largely influenced by nerve cells located in the bladder wall and other vegetative nerve cells. The “Nerve Growth Factor” (NGF) is an indicator for the local activity of the nerve cells.

The test system of assay [4] is estrogen receptor of alpha-subtype. Description: gene expression of estrogen receptor alpha-subtype in the prostate of male castrated rat. The assay is classed as in vivo.
The test system of assay [5] is IGF1. Description: IGF1 gene expression in the prostate of castrated male rats. It is filed as in vivo, rat. From the text: (§1) The prostate regression induced by castration could be antagonized by testosterone in experiments with rats.
Assay [6] deals with prostate. Briefly: prostate regression / testosterone-induced prostate growth in castrated rats. It is filed as in vivo, rat.
Description: as §1

In the case of `C[C@]12CC[C@@H]3c4ccc(O)cc4CC[C@H]3[C@@H]1CC[C@@H]2O` [estradiol, 17β-estradiol], the “gene expression of the estrogen receptor-alpha” value in assay [1] is on record as “regulate down”. Besides, the “gene expression of the estrogen receptor-beta” value in assay [2] was “without having an effect”. The “gene expression of Nerve Growth Factor (NGF)” value in assay [3] is listed as “observed under neither estradiol nor testosterone”. Further, in assay [4], the “gene expression of the estrogen receptor of alpha-subtype” value is listed as “significantly inhibit”.

In the case of `C[C@]12CC[C@H]3[C@@H](CCC4=CC(=O)CC[C@@]43C)[C@@H]1CC[C@@H]2O` [testosterone], in assay [5], the “gene expression of the growth factor IGF1” value is recorded as “regulated up”. Moreover, the “gene expression of Nerve Growth Factor (NGF)” value in assay [3] is “observed under neither estradiol nor testosterone”. The “prostate regression induced by castration” value in assay [6] is reported as “antagonized”.
